# Assay results published in PMC5442318, “Hundreds of dual-stage antimalarial molecules discovered by a functional gametocyte screen” (Nature Communications, 2017).
# Assay: Intrinsic clearance assay
# Type: in vitro ADME
# Conditions: mouse liver microsomes, 0.5 μM
# Procedure: Intrinsic clearance (CLi) values were determined in mouse liver microsomes (M1000, XenoTech). Test compounds (final concentration 0.5 μM) were incubated at 37 °C for 45 min in 50 mM potassium phosphate buffer (pH 7.4) containing 0.5 mg microsomal protein per ml. The reaction was started by addition of cofactor NADPH ([…], Sigma) at 1 mM final concentration. The final concentration of organic solvent (DMSO) was limited to 0.25% of the final volume. At 0, 5, 15, 30, and 45 min, an aliquot (100 μl) was taken, quenched with acetonitrile containing an appropriate internal standard, and analysed by HPLC-MS/MS (Applied Biosystems). CLi was determined from the first-order elimination constant by nonlinear regression, corrected for the volume of the incubation and assuming […] mouse protein per g liver. Values for CLi were expressed as ml min^-1 per g liver.
smiles,measurement,value
FC(F)(F)c1cnc(Sc2nnc(-c3ccncc3)o2)c(Cl)c1 [TCMDC-123767],in vitro microsome clearance,7.9 ml min^−1 per g liver
